Calls of active or inactive are those of the source. The rule behind the calls is not given here.
What was measured:
[1] = biological target: T1, Sterol O-acyltransferase 1 (Homo sapiens, UniProt P35610); experiment: Inhibition of ACAT1- mediated cholesteryl ester synthesis in macrophages
T1 sequence (P35610 whole entry): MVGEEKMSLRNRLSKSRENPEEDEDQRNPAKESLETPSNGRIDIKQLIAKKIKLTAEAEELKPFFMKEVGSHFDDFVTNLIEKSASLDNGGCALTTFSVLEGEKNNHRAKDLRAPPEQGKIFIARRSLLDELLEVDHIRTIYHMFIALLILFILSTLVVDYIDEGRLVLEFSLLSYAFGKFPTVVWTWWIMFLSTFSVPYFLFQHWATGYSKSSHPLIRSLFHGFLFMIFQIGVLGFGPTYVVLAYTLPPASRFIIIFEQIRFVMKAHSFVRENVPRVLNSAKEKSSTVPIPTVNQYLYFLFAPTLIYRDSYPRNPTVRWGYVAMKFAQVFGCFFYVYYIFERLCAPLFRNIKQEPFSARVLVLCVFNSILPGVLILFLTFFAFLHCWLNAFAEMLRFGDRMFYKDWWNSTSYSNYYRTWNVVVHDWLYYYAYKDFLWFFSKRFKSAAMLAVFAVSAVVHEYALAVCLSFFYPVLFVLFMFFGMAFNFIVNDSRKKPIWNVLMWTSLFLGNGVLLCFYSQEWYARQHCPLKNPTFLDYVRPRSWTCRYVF

[2] = biological target: T2, Sterol O-acyltransferase 1 (Homo sapiens) (UniProt P35610); experiment: Inhibition of ACAT1- mediated cholesteryl ester synthesis in macrophages up to 10 uM
T2 sequence (whole entry): T1 sequence (P35610 whole entry)

Row | IC50 [1] [nM] | inhibition [2] | SMILES
1 | 800 | inactive | CCCC[C@H](C)[C@@H]1CC(=O)N[C@@H](C(c2ccccc2)c2ccccc2)C(=O)N[C@H](Cn2cc(CNC(=O)CCCCNC(=O)CCCC[C@@H]3SC[C@@H]4NC(=O)N[C@@H]43)nn2)C(=O)N[C@H](C2CCCCC2)C(=O)O1
2 | 280 |  | CCCC[C@H](C)[C@@H]1CC(=O)N[C@@H](C(c2ccccc2)c2ccccc2)C2=N[C@H](CO2)C(=O)N[C@H](C2CCCCC2)C(=O)O1

From ChEMBL document CHEMBL1932979, “Conformationally restricted analog and biotin-labeled probe based on beauveriolide III” (Bioorg Med Chem Lett, 2012)
